From patent US20130157953A1, “TREATMENT OF CARDIAC CONDITIONS” (Zealand Pharma A/S, priority 2010, published 2013)
Numbered stars: 1 amine (or outer) side, 2 acyl side, 3 side chain; on linkers, the order of the positions; unused ones are H or OH. Bridge positions count the residues as written; N and C are the ends. Square brackets hold non-standard residues; d marks the D form. Side chains are listed from the residue outwards. Peptide text beside a SMILES is read from it. * marks the point of attachment. γGlu = O=C(O)[C@H](CCC(=O)[*:2])N[*:1]; Palmitoyl = CCCCCCCCCCCCCCCC(=O)*; Aib = CC(C)(N)C(=O)O

Key:
human GLP-1R = target: T1, human GLP-1R (Homo sapiens, UniProt P43220); assay: cAMP formation in HEK293 cells expressing human GLP-1R; assay type: cell-based; settings: 15 min at 37° C.
T1 construct: expressed in transfected cells; host or cells: HEK293
Text: (§1) Similarly, activation of the GLP-1 receptor by a GLP-1 agonist will stimulate cellular cAMP formation. Thus, production of cAMP in suitable cells expressing one of these two receptors can be used to monitor the relevant receptor activity.
(§2) The skilled person will be aware of suitable assay formats, and examples are provided below. […] (Where sequences of precursor proteins are referred to, it should of course be understood that assays may make use of the mature protein, lacking the signal sequence).
(§3) On the day of analysis, growth medium was removed and the cells washed once with 200 μl Tyrode buffer. Cells were incubated in […] containing increasing concentrations of test peptides, 100 μM IBMX, and 6 mM glucose for 15 min at 37° C. The reaction was stopped by addition of 25 μl 0.5 M HCl and incubated on ice for 60 min. The cAMP content was estimated using the FlashPlate® cAMP kit from Perkin-Elmer. EC50 values were estimated by computer aided curve fitting.

human glucagon receptor = target: T2, human glucagon receptor (Homo sapiens, UniProt P47871); assay: cAMP formation in HEK293 cells expressing the human glucagon receptor; assay type: cell-based; settings: 15 min at 37° C., read-out: EC50 (nM) GuR
T2 construct: expressed in transfected cells; host or cells: HEK293
Text: as §1, §2, §3

T1 sequence (P43220 24-463): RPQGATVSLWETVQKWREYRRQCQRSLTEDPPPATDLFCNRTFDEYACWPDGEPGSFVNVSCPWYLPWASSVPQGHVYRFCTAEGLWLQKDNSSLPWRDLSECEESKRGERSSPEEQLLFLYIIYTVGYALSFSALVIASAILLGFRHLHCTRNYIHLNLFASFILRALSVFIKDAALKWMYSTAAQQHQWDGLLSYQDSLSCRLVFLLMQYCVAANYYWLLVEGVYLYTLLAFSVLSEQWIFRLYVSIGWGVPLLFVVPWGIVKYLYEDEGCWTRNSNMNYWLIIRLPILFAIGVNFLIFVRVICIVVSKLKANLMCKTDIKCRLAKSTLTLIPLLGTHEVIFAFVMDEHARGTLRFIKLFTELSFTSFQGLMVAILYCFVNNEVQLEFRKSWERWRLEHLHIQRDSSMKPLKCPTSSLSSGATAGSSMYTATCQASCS
T2 sequence (P47871 26-477): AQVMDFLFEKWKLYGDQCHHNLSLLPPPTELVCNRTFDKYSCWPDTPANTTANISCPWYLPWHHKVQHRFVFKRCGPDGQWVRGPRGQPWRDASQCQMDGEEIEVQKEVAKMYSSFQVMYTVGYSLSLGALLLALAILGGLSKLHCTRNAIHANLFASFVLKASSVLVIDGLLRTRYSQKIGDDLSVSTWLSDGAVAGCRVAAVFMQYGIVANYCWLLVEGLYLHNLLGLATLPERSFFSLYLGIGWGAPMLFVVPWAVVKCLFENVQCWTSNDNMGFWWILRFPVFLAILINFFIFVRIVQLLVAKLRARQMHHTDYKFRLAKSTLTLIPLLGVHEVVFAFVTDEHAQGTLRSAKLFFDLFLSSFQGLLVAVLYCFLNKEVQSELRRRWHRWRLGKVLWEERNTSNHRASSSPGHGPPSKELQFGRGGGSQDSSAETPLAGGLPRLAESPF

| EC50 (human GLP-1R) [nM] | EC50 (human glucagon receptor) [nM] | Molecule |
| --- | --- | --- |
| 0.3 | 0.1 | CC(C)C[C@H](NC(=O)[C@H](Cc1ccc(O)cc1)NC(=O)[C@H](CCCCN)NC(=O)[C@H](CO)NC(=O)[C@H](Cc1ccc(O)cc1)NC(=O)[C@H](CC(=O)O)NC(=O)[C@H](CO)NC(=O)[C@@H](NC(=O)[C@H](Cc1ccccc1)NC(=O)[C@@H](NC(=O)CNC(=O)[C@H](CCC(N)=O)NC(=O)[C@H](CO)NC(=O)[C@@H](N)Cc1c[nH]cn1)[C@@H](C)O)[C@@H](C)O)C(=O)N[C@@H](CC(=O)O)C(=O)N[C@@H](CO)C(=O)N[C@@H](CCCNC(=N)N)C(=O)N[C@@H](CCCNC(=N)N)C(=O)N[C@@H](C)C(=O)N[C@@H](CCC(N)=O)C(=O)N[C@@H](CC(=O)O)C(=O)N[C@@H](Cc1ccccc1)C(=O)N[C@H](C(=O)N[C@@H](Cc1c[nH]c2ccccc12)C(=O)N[C@@H](CC(C)C)C(=O)N[C@@H](CCCCN)C(=O)N[C@@H](CCCNC(=N)N)C(=O)N[C@@H](C)C(N)=O)C(C)C [Compound 250] |
| 0.2 | 0.07 | H-HSQGTFTSDYSKYLDKRRAEDFVWLMNT-NH2 [Compound 256] |
| 0.11 | 0.16 | CCCCCCCCCCCCCCCC(=O)N[C@@H](CCC(=O)NCCCC[C@H](NC(=O)[C@H](CO)NC(=O)[C@H](CC(=O)O)NC(=O)[C@H](CC(C)C)NC(=O)[C@H](Cc1ccc(O)cc1)NC(=O)[C@H](CCCCN)NC(=O)[C@H](CO)NC(=O)[C@H](Cc1ccc(O)cc1)NC(=O)[C@H](CC(=O)O)NC(=O)[C@H](CO)NC(=O)[C@@H](NC(=O)[C@H](Cc1ccccc1)NC(=O)[C@@H](NC(=O)CNC(=O)[C@H](CCC(N)=O)NC(=O)C(C)(C)NC(=O)[C@@H](N)Cc1c[nH]cn1)[C@@H](C)O)[C@@H](C)O)C(=O)N[C@@H](C)C(=O)N[C@@H](C)C(=O)N[C@@H](Cc1c[nH]cn1)C(=O)N[C@@H](CC(=O)O)C(=O)N[C@@H](Cc1ccccc1)C(=O)N[C@H](C(=O)N[C@@H](CCC(=O)O)C(=O)N[C@@H](Cc1c[nH]c2ccccc12)C(=O)N[C@@H](CC(C)C)C(=O)N[C@@H](CC(C)C)C(=O)N[C@@H](CO)C(=O)N[C@@H](C)C(N)=O)C(C)C)C(=O)O [Compound 208] |
| 0.24 | 0.1 | H-HSQGTFTSDYSKYLDSALAQDFVWLLNT-NH2 [Compound 255] |
| 0.2 | 0.1 | CC(C)C[C@H](NC(=O)[C@H](Cc1ccc(O)cc1)NC(=O)[C@H](CCCCN)NC(=O)[C@H](CO)NC(=O)[C@H](Cc1ccc(O)cc1)NC(=O)[C@H](CC(=O)O)NC(=O)[C@H](CO)NC(=O)[C@@H](NC(=O)[C@H](Cc1ccccc1)NC(=O)[C@@H](NC(=O)CNC(=O)[C@H](CCC(N)=O)NC(=O)[C@H](CO)NC(=O)[C@@H](N)Cc1c[nH]cn1)[C@@H](C)O)[C@@H](C)O)C(=O)N[C@@H](CC(=O)O)C(=O)N[C@@H](CO)C(=O)N[C@@H](CCCNC(=N)N)C(=O)N[C@@H](CCCNC(=N)N)C(=O)N[C@@H](C)C(=O)N[C@@H](CCC(N)=O)C(=O)N[C@@H](CC(=O)O)C(=O)N[C@@H](Cc1ccccc1)C(=O)N[C@H](C(=O)N[C@@H](Cc1c[nH]c2ccccc12)C(=O)N[C@@H](CC(C)C)C(=O)N[C@@H](CCC(=O)O)C(=O)N[C@@H](CCCNC(=N)N)C(=O)N[C@@H](C)C(N)=O)C(C)C [Compound 251] |
| 0.1 | 0.04 | CCCCCCCCCCCCCCCC(=O)N[C@@H](CCC(=O)NCCCC[C@H](NC(=O)[C@H](C)NC(=O)[C@H](C)NC(=O)[C@H](CCCCN)NC(=O)[C@H](CO)NC(=O)[C@H](CC(=O)O)NC(=O)[C@H](CC(C)C)NC(=O)[C@H](Cc1ccc(O)cc1)NC(=O)[C@H](CCCCN)NC(=O)[C@H](CO)NC(=O)[C@H](Cc1ccc(O)cc1)NC(=O)[C@H](CC(=O)O)NC(=O)[C@H](CO)NC(=O)[C@@H](NC(=O)[C@H](Cc1ccccc1)NC(=O)[C@@H](NC(=O)CNC(=O)[C@H](CCC(N)=O)NC(=O)[C@H](CO)NC(=O)[C@@H](N)Cc1c[nH]cn1)[C@@H](C)O)[C@@H](C)O)C(=O)N[C@@H](CC(=O)O)C(=O)N[C@@H](Cc1ccccc1)C(=O)N[C@H](C(=O)N[C@@H](CCC(=O)O)C(=O)N[C@@H](Cc1c[nH]c2ccccc12)C(=O)N[C@@H](CC(C)C)C(=O)N[C@@H](CC(C)C)C(=O)N[C@@H](CCCNC(=N)N)C(=O)N[C@@H](C)C(N)=O)C(C)C)C(=O)O [Compound 204] (H-HSQGTFTSDYSKYLDSKAAK([γGlu-Palmitoyl])DFVEWLLRA-NH2) |
| 0.5 | 0.05 | H-HSQGTFTSDYSKYLDSRHAQDFVWLMNT-NH2 [Compound 244] |
| 0.09 | 0.1 | CCCCCCCCCCCCCCCC(=O)N[C@@H](CCC(=O)NCCCC[C@H](NC(=O)[C@H](CC(C)C)NC(=O)[C@H](CC(C)C)NC(=O)[C@H](Cc1c[nH]c2ccccc12)NC(=O)[C@H](CCC(=O)O)NC(=O)[C@@H](NC(=O)[C@H](Cc1ccccc1)NC(=O)[C@H](CC(=O)O)NC(=O)[C@H](Cc1c[nH]cn1)NC(=O)[C@H](C)NC(=O)[C@H](C)NC(=O)[C@H](CCCCN)NC(=O)[C@H](CO)NC(=O)[C@H](CC(=O)O)NC(=O)[C@H](CC(C)C)NC(=O)[C@H](Cc1ccc(O)cc1)NC(=O)[C@H](CCCCN)NC(=O)[C@H](CO)NC(=O)[C@H](Cc1ccc(O)cc1)NC(=O)[C@H](CC(=O)O)NC(=O)[C@H](CO)NC(=O)[C@@H](NC(=O)[C@H](Cc1ccccc1)NC(=O)[C@@H](NC(=O)CNC(=O)[C@H](CCC(N)=O)NC(=O)[C@H](CO)NC(=O)[C@@H](N)Cc1c[nH]cn1)[C@@H](C)O)[C@@H](C)O)C(C)C)C(=O)N[C@@H](C)C(N)=O)C(=O)O [Compound 205] (H-HSQGTFTSDYSKYLDSKAAHDFVEWLLK([γGlu-Palmitoyl])A-NH2) |
| 0.2 | 0.1 | H-HSQGTFTSDYSRYLDSRRAQDFVWLLNT-NH2 [Compound 253] |
| 0.5 | 0.1 | CC(C)C[C@H](NC(=O)[C@H](Cc1ccc(O)cc1)NC(=O)[C@H](CCCCN)NC(=O)[C@H](CO)NC(=O)[C@H](Cc1ccc(O)cc1)NC(=O)[C@H](CC(=O)O)NC(=O)[C@H](CO)NC(=O)[C@@H](NC(=O)[C@H](Cc1ccccc1)NC(=O)[C@@H](NC(=O)CNC(=O)[C@H](CCC(N)=O)NC(=O)[C@H](CO)NC(=O)[C@@H](N)Cc1c[nH]cn1)[C@@H](C)O)[C@@H](C)O)C(=O)N[C@@H](CC(=O)O)C(=O)N[C@@H](CO)C(=O)N[C@@H](CCCNC(=N)N)C(=O)N[C@@H](CCCNC(=N)N)C(=O)N[C@@H](C)C(=O)N[C@@H](CCC(N)=O)C(=O)N[C@@H](CC(=O)O)C(=O)N[C@@H](Cc1ccccc1)C(=O)N[C@H](C(=O)N[C@@H](Cc1c[nH]c2ccccc12)C(=O)N[C@@H](CC(C)C)C(=O)N[C@@H](CCC(=O)O)C(=O)N[C@@H](CO)C(=O)N[C@@H](C)C(N)=O)C(C)C [Compound 248] |
| 0.08 | 0.06 | CC(C)C[C@H](NC(=O)[C@H](CC(C)C)NC(=O)[C@H](Cc1c[nH]c2ccccc12)NC(=O)[C@H](CCC(=O)O)NC(=O)[C@@H](NC(=O)[C@H](Cc1ccccc1)NC(=O)[C@H](CC(=O)O)NC(=O)[C@H](Cc1c[nH]cn1)NC(=O)[C@H](C)NC(=O)[C@H](C)NC(=O)[C@H](CCCCN)NC(=O)[C@H](CO)NC(=O)[C@H](CC(=O)O)NC(=O)[C@H](CC(C)C)NC(=O)[C@H](Cc1ccc(O)cc1)NC(=O)[C@H](CCCCN)NC(=O)[C@H](CO)NC(=O)[C@H](Cc1ccc(O)cc1)NC(=O)[C@H](CC(=O)O)NC(=O)[C@H](CO)NC(=O)[C@@H](NC(=O)[C@H](Cc1ccccc1)NC(=O)[C@@H](NC(=O)CNC(=O)[C@H](CCC(N)=O)NC(=O)C(C)(C)NC(=O)[C@@H](N)Cc1c[nH]cn1)[C@@H](C)O)[C@@H](C)O)C(C)C)C(=O)N[C@@H](CCCNC(=N)N)C(=O)N[C@@H](C)C(N)=O [Compound 45] (H-H[Aib]QGTFTSDYSKYLDSKAAHDFVEWLLRA-NH2) |
| 0.03 | 0.07 | CC(C)C[C@@H]1NC(=O)[C@H](CC(C)C)NC(=O)[C@H](Cc2c[nH]c3ccccc23)NC(=O)[C@@H](NC(=O)[C@@H](NC(=O)[C@H](Cc2ccccc2)NC(=O)[C@H](CC(=O)O)NC(=O)[C@H](Cc2c[nH]cn2)NC(=O)[C@H](C)NC(=O)[C@H](C)NC(=O)[C@H](CCCCN)NC(=O)[C@H](CO)NC(=O)[C@H](CC(=O)O)NC(=O)[C@H](CC(C)C)NC(=O)[C@H](Cc2ccc(O)cc2)NC(=O)[C@H](CCCCN)NC(=O)[C@H](CO)NC(=O)[C@H](Cc2ccc(O)cc2)NC(=O)[C@H](CC(=O)O)NC(=O)[C@H](CO)NC(=O)[C@@H](NC(=O)[C@H](Cc2ccccc2)NC(=O)[C@@H](NC(=O)CNC(=O)[C@H](CCC(N)=O)NC(=O)[C@H](CO)NC(=O)[C@@H](N)Cc2c[nH]cn2)[C@@H](C)O)[C@@H](C)O)C(C)C)CCC(=O)NCCCC[C@@H](C(=O)N[C@@H](C)C(N)=O)NC1=O [Compound 261] (H-HSQGTFTSDYSKYLDSKAAHDFVEWLLKA-NH2; lactam 24-28) |
| 0.1 | 0.1 | CC(C)C[C@H](NC(=O)[C@H](Cc1ccc(O)cc1)NC(=O)[C@H](CCCCN)NC(=O)[C@H](CO)NC(=O)[C@H](Cc1ccc(O)cc1)NC(=O)[C@H](CC(=O)O)NC(=O)[C@H](CO)NC(=O)[C@@H](NC(=O)[C@H](Cc1ccccc1)NC(=O)[C@@H](NC(=O)CNC(=O)[C@H](CCC(N)=O)NC(=O)[C@H](CO)NC(=O)[C@@H](N)Cc1c[nH]cn1)[C@@H](C)O)[C@@H](C)O)C(=O)N[C@@H](CC(=O)O)C(=O)N[C@@H](CO)C(=O)N[C@@H](CCCNC(=N)N)C(=O)N[C@@H](CCCNC(=N)N)C(=O)N[C@@H](C)C(=O)N[C@@H](CCC(N)=O)C(=O)N[C@@H](CC(=O)O)C(=O)N[C@@H](Cc1ccccc1)C(=O)N[C@H](C(=O)N[C@@H](Cc1c[nH]c2ccccc12)C(=O)N[C@@H](CC(C)C)C(=O)N[C@@H](CCCCN)C(=O)N[C@@H](CO)C(=O)N[C@@H](C)C(N)=O)C(C)C [Compound 249] |
